One test concerns the target T1, Recombinant human GSK3β (Homo sapiens, UniProt P49841).
T1 construct: His-tag; made in house; host or cells: Sf9 insect cells / baculovirus
Put plainly: GSK-3β (Glycogen Synthase Kinase) cell free enzyme assay. The settings on record: 1 μM; Examples 201-221. It is filed as biochemical. In short, it runs like this: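 This cell-free kinase assay measured [33P] transfer from [33P]ATP gamma phosphate into the biotinylated peptide bio-LC-S-R-H-S-S-P-H-Q-pS-E-D-E-E-E-OH. After 60 min at RT, reactions were stopped with 0.66 volume of PBS lacking Ca or Mg containing 12.5 mM EDTA, 0.25% Triton-X 100, 125 uM ATP and 6.2 mg/ml streptavidin SPA beads. Bead-bound radioactivity was counted as CPM on a Trilux scintillation counter.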
T1 sequence (P49841 whole entry): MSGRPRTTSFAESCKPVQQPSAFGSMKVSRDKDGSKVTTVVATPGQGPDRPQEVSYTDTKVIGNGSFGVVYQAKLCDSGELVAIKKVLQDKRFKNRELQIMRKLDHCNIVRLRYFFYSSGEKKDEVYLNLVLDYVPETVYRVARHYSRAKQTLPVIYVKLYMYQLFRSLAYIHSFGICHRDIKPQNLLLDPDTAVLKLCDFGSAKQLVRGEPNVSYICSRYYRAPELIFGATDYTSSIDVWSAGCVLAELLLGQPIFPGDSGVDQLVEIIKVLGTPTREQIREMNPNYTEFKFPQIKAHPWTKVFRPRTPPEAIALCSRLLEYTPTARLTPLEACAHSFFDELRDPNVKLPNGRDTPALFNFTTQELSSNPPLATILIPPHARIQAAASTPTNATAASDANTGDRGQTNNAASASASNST
Regarding “Methyl (1R,5S)-3-(1-methyl- 6-oxo-4-pyridin-4-yl-16- dihydropyrimidin-2-yl)-38- diazabicyclo[3.2.1]octane-8- carboxylate [Example 201]”, the “Percent inhibition at 1 μM” value was 89%. For “Methyl (1R,5S)-8-(1-methyl- 6-oxo-4-pyridin-4-yl-16- dihydropyrimidin-2-yl)-38- diazabicyclo[3.2.1]octane-3- carboxylate [Example 202]”, the “Percent inhibition at 1 μM” value came to 93%. The same measure, in the same setting: as for “Methyl (3a,S5,S7,aR)-3a- methyl-5-[methyl(1-methyl- 6-oxo-4-pyridin-4-yl-16- dihydropyrimidin-2- yl)amino]octahydro-1H- indole-1-carboxylate [Example 212]”, the figure is 93%.

Still in this test, the particulars now being: cell free enzyme assay; Examples 265-291.
A word on the IC50: it is the concentration that gives 50% inhibition. `CC(C)Cc1nn(C)c2c(=O)[nH]c(N3C[C@@H]4[C@H](C3)[C@H]4N(C)c3nc(-c4ccncc4F)cc(=O)n3C)nc12` [Example 278, 5-[(1R,5S,6s)-6-{[4-(3-Fluoropyridin-4-yl)-1-methyl-6-oxo-1,6-dihydropyrimidin-2-yl](methyl)amino}-3-azabicyclo[3.1.0]hex-3-yl]-3-isobutyl-1-methyl-1,6-dihydro-7H-pyrazolo[4,3-d]pyrimidin-7-one]: the IC50 was 109 nM. Still for that read-out and setting: as for `CN(c1nc(-c2ccncc2F)cc(=O)n1C)[C@H]1[C@@H]2CN(c3nnnn3C)C[C@@H]21` [Example 279, 6-(3-Fluoropyridin-4-yl)-3-methyl-2-{methyl[(1R,5S,6s)-3-(1-methyl-1H-tetrazol-5-yl)-3-azabicyclo[3.1.0]hex-6-yl]amino}pyrimidin-4(3H)-one], the figure is 58.6 nM; as for `CN(c1nc(-c2ccncc2F)cc(=O)n1C)[C@H]1[C@@H]2CN(c3nnnn3CC3CC3)C[C@@H]21` [Example 280, 2-[{(1R,5S,6s)-3-[1-(Cyclopropylmethyl)-1H-tetrazol-5-yl]-3-azabicyclo[3.1.0]hex-6-yl}(methyl)amino]-6-(3-fluoropyridin-4-yl)-3-methylpyrimidin-4(3H)-one], 4.48 nM; as for `CN(c1nc(-c2ccncc2F)cc(=O)n1C)[C@H]1[C@@H]2CN(c3nc4cc(C(F)(F)F)ccc4[nH]3)C[C@@H]21` [Example 281, 6-(3-Fluoropyridin-4-yl)-3-methyl-2-(methyl{(1R,5S,6s)-3-[5-(trifluoromethyl)-1H-benzimidazol-2-yl]-3-azabicyclo[3.1.0]hex-6-yl}amino)pyrimidin-4(3H)-one], 36.3 nM. For `CC(C)n1nnnc1N1C[C@@H]2[C@H](C1)[C@H]2N(C)c1nc(-c2ccncc2F)cc(=O)n1C` [Example 282, 6-(3-Fluoropyridin-4-yl)-2-{[(1R,5S,6s)-3-(1-isopropyl-1H-tetrazol-5-yl)-3-azabicyclo[3.1.0]hex-6-yl](methyl)amino}-3-methylpyrimidin-4(3H)-one], the IC50 worked out at 3.25 nM. Regarding `CN(c1nc(-c2ccncc2F)cc(=O)n1C)[C@H]1[C@@H]2CN(c3nc4ccccc4s3)C[C@@H]21` [Example 283, 2-{[(1R,5S,6s)-3-(1,3-Benzothiazol-2-yl)-3-azabicyclo[3.1.0]hex-6-yl](methyl)amino}-6-(3-fluoropyridin-4-yl)-3-methylpyrimidin-4(3H)-one], the IC50 is 55.7 nM. As to `CN(c1nc(-c2ccncc2F)cc(=O)n1C)[C@H]1[C@@H]2CN(c3nnnn3C3CCCC3)C[C@@H]21` [Example 284, 2-{[(1R,5S,6s)-3-(1-Cyclopentyl-1H-tetrazol-5-yl)-3-azabicyclo[3.1.0]hex-6-yl](methyl)amino}-6-(3-fluoropyridin-4-yl)-3-methylpyrimidin-4(3H)-one], the IC50 is 12.5 nM. With `Cc1nc(N2C[C@@H]3[C@H](C2)[C@H]3N(C)c2nc(-c3ccncc3F)cc(=O)n2C)n2nc(-c3ccccc3Cl)c(I)c2n1` [Example 285, 2-[{(1R,5S,6s)-3-[7-(2-Chlorophenyl)-8-iodo-2-methylpyrazolo[1,5-a][1,3,5]triazin-4-yl]-3-azabicyclo[3.1.0]hex-6-yl}(methyl)amino]-6-(3-fluoropyridin-4-yl)-3-methylpyrimidin-4(3H)-one], the IC50 is 5670 nM. Same read-out and setting: the same measure for `CCOc1cccc(-n2nnnc2N2C[C@@H]3[C@H](C2)[C@H]3N(C)c2nc(-c3ccncc3F)cc(=O)n2C)c1` [Example 286, 2-[{(1R,5S,6s)-3-[1-(3-Ethoxyphenyl)-1H-tetrazol-5-yl]-3-azabicyclo[3.1.0]hex-6-yl}(methyl)amino]-6-(3-fluoropyridin-4-yl)-3-methylpyrimidin-4(3H)-one]: 3.2 nM; for `COCC(C)n1nnnc1N1C[C@@H]2[C@H](C1)[C@H]2N(C)c1nc(-c2ccncc2F)cc(=O)n1C` (stereo partly drawn) [Example 287, 6-(3-Fluoropyridin-4-yl)-2-[{(1R,5S,6s)-3-[1-(2-methoxy-1-methylethyl)-1H-tetrazol-5-yl]-3-azabicyclo[3.1.0]hex-6-yl}(methyl)amino]-3-methylpyrimidin-4(3H)-one]: 3.06 nM. In the case of `CN(c1nc(-c2ccncc2F)cc(=O)n1C)[C@H]1[C@@H]2CN(c3nc4cc(F)ccc4[nH]3)C[C@@H]21` [Example 288, 2-{[(1R,5S,6s)-3-(5-Fluoro-1H-benzimidazol-2-yl)-3-azabicyclo[3.1.0]hex-6-yl](methyl)amino}-6-(3-fluoropyridin-4-yl)-3-methylpyrimidin-4(3H)-one], the IC50 amounted to 116 nM. Take `COc1ccc2nc(N3C[C@@H]4[C@H](C3)[C@H]4N(C)c3nc(-c4ccncc4F)cc(=O)n3C)sc2c1` [Example 289, 6-(3-Fluoropyridin-4-yl)-2-{[(1R,5S,6s)-3-(6-methoxy-1,3-benzothiazol-2-yl)-3-azabicyclo[3.1.0]hex-6-yl](methyl)amino}-3-methylpyrimidin-4(3H)-one]: the IC50 was 25.1 nM. On to `CN(c1nc(-c2ccncc2F)cc(=O)n1C)[C@H]1[C@@H]2CN(c3nnnn3Cc3cccc(OC(F)(F)F)c3)C[C@@H]21` [Example 290, 6-(3-Fluoropyridin-4-yl)-3-methyl-2-{methyl[(1R,5S,6s)-3-{1-[3-(trifluoromethoxy)benzyl]-1H-tetrazol-5-yl}-3-azabicyclo[3.1.0]hex-6-yl]amino}pyrimidin-4(3H)-one], for which the IC50 turned out to be 27.7 nM.

As to `CN(c1nc(-c2ccncc2F)cc(=O)n1C)[C@H]1[C@@H]2CN(c3nnnn3-c3cccc(OC(F)(F)F)c3)C[C@@H]21` [Example 291, 6-(3-Fluoropyridin-4-yl)-3-methyl-2-{methyl[(1R,5S,6s)-3-{1-[3-(trifluoromethoxy)phenyl]-1H-tetrazol-5-yl}-3-azabicyclo[3.1.0]hex-6-yl]amino}pyrimidin-4(3H)-one], the IC50 worked out at 5.99 nM.

The values above are taken from patent US20100292205A1, “Pyrimidone Compounds As GSK-3 Inhibitors” (PFIZER INC., priority 2006, published 2010).
